Reference: paper PMC8364686, “Safety, tolerability, pharmacokinetics and pharmacodynamics of single oral doses of BI 187004, an inhibitor of 11beta-hydroxysteroid dehydrogenase-1, in healthy male volunteers with overweight or obesity” (Clinical Diabetes and Endocrinology, 2021)

Assay: Plasma pharmacokinetics of BI 187004 after single oral doses (LC–MS/MS)
Details: male, human, plasma, po; for concentration at 6 h: planned time 6 h; for concentration at 8 h: planned time 8 h; for concentration at 10 h: planned time 10 h; for concentration at 12 h: planned time 12 h; for concentration at 36 h: planned time 36 h; for concentration at 48 h: planned time 48 h; for concentration at 72 h: planned time 72 h; for concentration at 96 h: planned time 96 h; for concentration at 0.5 h: planned time 0.5 h; for concentration at 1 h: planned time 1 h; for concentration at 1.5 h: planned time 1.5 h; for concentration at 2 h: planned time 2 h; for concentration at 2.5 h: planned time 2.5 h; for concentration at 3 h: planned time 3 h; for concentration at 4 h: planned time 4 h; for concentration at 5 h: planned time 5 h
[1] = 20 mg, BI 187004 plasma concentrations, 20 mg single oral, gMean
[2] = 20 mg, BI 187004 plasma concentrations, 20 mg single oral, Max
[3] = 20 mg, BI 187004 plasma concentrations, 20 mg single oral, Mean
[4] = 20 mg, BI 187004 plasma concentrations, 20 mg single oral, Median
[5] = 20 mg, BI 187004 plasma concentrations, 20 mg single oral, Min
[6] = 40 mg, BI 187004 plasma concentrations, 40 mg single oral, Max
[7] = 40 mg, BI 187004 plasma concentrations, 40 mg single oral, Mean
[8] = 40 mg, BI 187004 plasma concentrations, 40 mg single oral, Median
[9] = 40 mg, BI 187004 plasma concentrations, 40 mg single oral, Min
[10] = 40 mg, BI 187004 plasma concentrations, 40 mg single oral, gMean
[11] = 40 mg, BI 187004 plasma concentrations, 40 mg single oral, individual subjects

Experimental: This was a randomized, double-blind, placebo-controlled, single rising dose study conducted at a single center in Germany. […] Follow-up on an ambulatory basis was performed between 11 and 15 days after study drug administration. […] At the time of use the oral solution for dosing was prepared using the PFOS and a co-supplied aqueous solvent containing HP-beta-cyclodextrin 100 mg/mL. The lowest dose level solutions were prepared by further dilution of the lower concentration solution with additional solvent.
For each accepted run, the acceptance criteria for the calibration standards and quality controls were met.

For `N#Cc1ccc2c(c1)[C@H]1CCCN(C(=O)c3ccc4[nH]cnc4c3)[C@H]1C2` [BI 187004], the concentration at 6 h [1] was 547 nM, the concentration at 8 h [2] was 645 nM and the concentration at 8 h [3] was 464 nM. It also gave a concentration at 8 h [4] of 398 nM, a concentration at 8 h [5] of 354 nM and a concentration at 8 h [1] of 449 nM. It also gave a concentration at 8 h (20 mg, BI 187004 plasma concentrations, 20 mg single oral, individual subjects) of 645 nM, a concentration at 10 h [2] of 529 nM and a concentration at 10 h [3] of 398 nM. The concentration at 10 h [4] was 398 nM, the concentration at 10 h [5] was 253 nM and the concentration at 10 h [1] was 382 nM. The concentration at 12 h [2] was 457 nM, the concentration at 12 h [3] was 331 nM and the concentration at 12 h [4] was 311 nM. For the same compound, the concentration at 12 h [5] was 221 nM, the concentration at 12 h [1] was 316 nM and the concentration at 24 h (20 mg, BI 187004 plasma concentrations, 20 mg single oral, planned time 24 h, Max) was 353 nM. It also gave a concentration at 24 h (20 mg, BI 187004 plasma concentrations, 20 mg single oral, planned time 24 h, Mean) of 187 nM, a concentration at 24 h (20 mg, BI 187004 plasma concentrations, 20 mg single oral, planned time 24 h, Median) of 155 nM and a concentration at 24 h (20 mg, BI 187004 plasma concentrations, 20 mg single oral, planned time 24 h, Min) of 85.8 nM. For the same compound, the concentration at 24 h (20 mg, BI 187004 plasma concentrations, 20 mg single oral, planned time 24 h, gMean) was 161 nM, the concentration at 36 h [2] was 145 nM and the concentration at 36 h [3] was 67.3 nM. It also gave a concentration at 36 h [4] of 51.1 nM, a concentration at 36 h [5] of 27.8 nM and a concentration at 36 h [1] of 55.4 nM. The concentration at 48 h [2] was 104 nM, the concentration at 48 h [3] was 45.6 nM and the concentration at 48 h [4] was 34.4 nM. For the same compound, the concentration at 48 h [5] was 15.8 nM, the concentration at 48 h [1] was 35.9 nM and the concentration at 72 h [2] was 43.9 nM. It also gave a concentration at 72 h [3] of 20.5 nM, a concentration at 72 h [4] of 16.4 nM and a concentration at 72 h [5] of 6.98 nM. It also gave a concentration at 72 h [1] of 16.5 nM, a concentration at 96 h [2] of 18.2 nM and a concentration at 96 h [3] of 10.4 nM. For the same compound, the concentration at 96 h [4] was 9.48 nM, the concentration at 96 h [5] was 5.78 nM and the concentration at 96 h [1] was 9.42 nM. The concentration at 24 h (20 mg, C24 gMean (%gCV), 20 mg single oral dose) was 161 nM, the AUC(0-inf) (40 mg) was 25.9 µM·h and the AUC(0-t) (40 mg) was 19.9 µM·h. For the same compound, the Cmax (40 mg) was 2210 nM, the Tmax (40 mg) was 1 h and the Vd/F (40 mg) was 123 L. It also gave a half-life (40 mg) of 18.9 h, a concentration at 0.5 h [6] of 2530 nM and a concentration at 0.5 h [7] of 1760 nM. For the same compound, the concentration at 0.5 h [8] was 1980 nM, the concentration at 0.5 h [9] was 487 nM and the concentration at 0.5 h [10] was 1520 nM. It also gave a concentration at 1 h [6] of 2820 nM, a concentration at 1 h [7] of 2170 nM and a concentration at 1 h [8] of 2410 nM. It also gave a concentration at 1 h [9] of 974 nM, a concentration at 1 h [10] of 2050 nM and a concentration at 1.5 h [6] of 2610 nM. For the same compound, the concentration at 1.5 h [7] was 1950 nM, the concentration at 1.5 h [8] was 2160 nM and the concentration at 1.5 h [9] was 1020 nM. The concentration at 1.5 h [10] was 1870 nM, the concentration at 2 h [6] was 2410 nM and the concentration at 2 h [7] was 1760 nM. The concentration at 2 h [8] was 1860 nM, the concentration at 2 h [9] was 1040 nM and the concentration at 2 h [10] was 1700 nM. The concentration at 2.5 h [6] was 2180 nM, the concentration at 2.5 h [7] was 1750 nM and the concentration at 2.5 h [8] was 1870 nM. The concentration at 2.5 h [9] was 1160 nM, the concentration at 2.5 h [10] was 1710 nM and the concentration at 2.5 h [11] was 2180 nM. For the same compound, the concentration at 3 h [6] was 1810 nM, the concentration at 3 h [7] was 1530 nM and the concentration at 3 h [8] was 1560 nM. It also gave a concentration at 3 h [9] of 1130 nM, a concentration at 3 h [10] of 1510 nM and a concentration at 3 h [11] of 1680 nM. It also gave a concentration at 4 h [6] of 1700 nM, a concentration at 4 h [7] of 1460 nM and a concentration at 4 h [8] of 1530 nM. For the same compound, the concentration at 4 h [9] was 1020 nM, the concentration at 4 h [10] was 1440 nM and the concentration at 4 h [11] was 1640 nM. It also gave a concentration at 5 h [6] of 1610 nM, a concentration at 5 h [7] of 1320 nM and a concentration at 5 h [8] of 1350 nM. The concentration at 5 h [9] was 888 nM, the concentration at 5 h [10] was 1290 nM and the concentration at 5 h [11] was 1440 nM. For the same compound, the concentration at 6 h [6] was 1400 nM, the concentration at 6 h [7] was 1120 nM and the concentration at 6 h [8] was 1130 nM. For the same compound, the concentration at 6 h [9] was 736 nM, the concentration at 6 h [10] was 1090 nM and the concentration at 6 h [11] was 1230 nM. For the same compound, the concentration at 8 h [6] was 1190 nM, the concentration at 8 h [7] was 951 nM and the concentration at 8 h [8] was 987 nM. It also gave a concentration at 8 h [9] of 606 nM, a concentration at 8 h [10] of 929 nM and a concentration at 8 h [11] of 1000 nM.
